This passage reports Latency time and Alternation behavior results from patent US10471111B2, “Lactobacillus and composition for preventing, improving, or treating degenerative brain diseases or cognitive function disorders” (University-Industry Cooperation Group of Kyung Hee …, priority 2015, dated 2019).

Common to all, as to assay type: in vivo, ICR male mice
In test [1] the test system is mice induced to have memory impairment by scopolamine. Briefly: Passive Avoidance test, memory impairment by scopolamine. The following applies: scopolamine 1 mg/kg; lactic acid bacteria 1×10^9 CFU or donepezil 5 mg/kg daily for three days; measured up to 300 seconds. An excerpt: In the Passive Avoidance test apparatus, which is divided into the first and second space, there is a guillotine-like door that connects the two spaces. By using lightings, the first space was kept bright while the second space was kept dark. On the floor of the second space that was kept dark was placed an electric grid that flowed 0.5 mA of electric shock for three seconds in the case of the animal moving to the dark space.
(§1) The selected 13 types of lactic acid bacteria were each suspended in physiological saline at the concentration of 1×10^10 CFU/ ? , and then the suspension was administered to mice of the test animal (5-week-old ICR male mice from Raonbio), at the dosage of 0.1 ? (equivalent to 1×10^9 CFU of lactic acid bacteria) on a daily basis for three days. […]
On the third day after administering the drug, an hour after administering lactic acid bacteria or positive control drug, 1 mg/kg (body weight) of scopolamine (cholinergic blocking drug inducing cognitive ability disorder or memory damage), dissolved in distilled water, was administered in the abdomen while the normal group was administered with physiological saline in the abdomen. […] With 10 seconds of observation, the guillotine-like door is opened, the time that the mice in each experimental group took to have all of their four feet inside the second space was measured up to 300 seconds, whose result is shown in Table 8. […]

Test [2] deals with mice induced to have memory impairment by Proteus mirabilis K21. Nature of the test: Y-maze test, memory impairment by Proteus mirabilis K21. To be noted: Proteus mirabilis K21 1×10^9 CFU for five days, then lactic acid bacteria 1×10^9 CFU or donepezil 5 mg/kg daily for five days. As for the experimental part: Proteus mirabilis K21 separated from the animal with damaged memory was administered to the mice to induce memory impairment (similar symptoms to […]), and Y-maze test was conducted to measure the improvement effect of lactic acid bacteria for cognitive ability.
In more detail, Proteus mirabilis K21 was administered to a mouse (5-week-old ICR male mice from Raonbio) that was fed for a week in the animal laboratory at the dosage of 1×10^9 CFU on a daily basis for five days to induce memory impairment. In the meantime, the normal group was administered with physiological saline instead of Proteus mirabilis K21. […]
An hour after the final administration of drug, the mouse was carefully placed in one of the three arms, A, B, and C, in the Y-maze and allowed to freely move for eight minutes, and then the arm in which the mouse moved was recorded. In the experiment, the arm was recorded as an arm in which the test animal moved only when the entire body including the tail was inside the arm, or when the mouse moved back in. […] The experimental result was calculated by the formula below (Sarter, M. et al., Psychopharmacology., 94, pp 491-495, 1998), as shown in Table 12 below. […]

In test [3] the test system is mice induced to have memory impairment by scopolamine. Briefly: Y-maze test, memory impairment by scopolamine. As for the experimental part: Apparatus used in the Y-maze test consists of three arms with each being 42 cm in length, 3 cm in width and 12 cm in height. The three arms, made from black polyvinyl resin, were placed at an angle of 120 degrees.
as §1
An hour after the final administration of lactic acid bacteria or positive control drug, 1 mg/kg (body weight) of scopolamine (cholinergic blocking drug inducing cognitive ability disorder or memory impairment), dissolved in distilled water, was administered in the abdomen while the normal group was administered with physiological saline in the abdomen. half an hour after the administration of scopolamine, the mouse was carefully placed in one of the three arms, A, B, and C, in the Y-maze and allowed to freely move for eight minutes, and then the arm in which the mouse moved was recorded. In the experiment, the arm was recorded as a case in which the test animal moved only when the entire body including the tail was inside the arm, or when the mouse moved back in. […]

The compound `COc1cc2c(cc1OC)C(=O)C(CC1CCN(Cc3ccccc3)CC1)C2` (stereo not shown) [donepezil] yielded a Latency time in test [1] of 66.4 s. The Alternation behavior in test [2] amounted to 58.6%; in test [3] (Y-maze test, Table 11, scopolamine, red bean suspension or ferment 0.2 g per mouse, CJLJ103 2 × 10^8 CFU per mouse daily) it was 63.2%; in test [3] (scopolamine 1 mg/kg, lactic acid bacteria 1×10^9 CFU or donepezil 5 mg/kg daily for three days), 65.8%.
